Measured values reported in US20230322776A1, “NEW ARYL-PYRIDO-PYRIMIDIN-ONE DERIVATIVES” (Hoffmann-La Roche Inc., priority 2020, published 2023).

Key:
[1] = target: BRAF V660E (Homo sapiens, UniProt P15056, V600E); assay: KD BRAF V660E (Table 1; no method described); assay type: binding
[2] = target: BRAF (Homo sapiens, UniProt P15056); assay: KD BRAF (Table 1; no method described); assay type: binding
[3] = tested on: HCT116 cells (WT BRAF), ERK phospho-T202/Y204; assay: HTRF assay for P-ERK determination in HCT116 cells (BRAF activation, paradox); assay type: cell-based; conditions: for EC50: Homo sapiens, HCT-116, HCT116 cells, 1 hour drug incubation, activation relative to maximum Dabrafenib-mediated activation (100%), top concentration 10 μM, read-out: P-ERK_HCT-116: EC50—50PCT; for Fold Selectivity HCT-116 EC50-50/ A375: ratio of P-ERK HCT-116 EC50-50PCT to P-ERK A375 IC50
Source text: (§1) A375 is a cellular cancer model expressing V600E mutated BRAF and HCT116 a cellular cancer model expressing WT BRAF. First generation BRAF inhibitors such as e.g. dabrafenib induce a paradox effect on tumour cells in that they inhibit the growth of V600E mutated BRAF cells (such as e.g. A375), while they activate growth in WT BRAF cells (such as e.g. HCT 116). ERK 1,2 phosphorylation (terminal member of the phosphorylation cascade of the MAPK pathway) is hereafter reported as main readout for the activation status of the MAPK pathway. DMEM no-phenol red medium supplemented with L-glutamine was purchased from (Thermo Fisher Scientific). Fetal bovine serum (FBS) was purchased from VWR. Advanced ERK phospho-T202/Y204 kit—10,000 tests was purchased from Cisbio cat #64AERPEH. A375 (catalog #CRL-1619) and HCT116 (catalog #CCL-247) cells were originally obtained from American type Culture Collection (ATCC) and banked by the Roche repository. 384-Well microplates ultized were purchased from Greiner Bio-One, 384-well, (With Lid, HiBase, Low volume cat 784-080).
(§2) HTRF Assay for P-ERK Determination in A375 or HCT116 Cells
(§3) Prior to the assay, A375 and HCT116 cell lines are maintained in DMEM no-phenol red medium supplemented with 10% fetal bovine serum (FBS). Following compound treatment, P-ERK levels are determined by measuring FRET fluorescence signal induced by selective binding of two antibodies provided in the mentioned kit (Cisbio cat #64AERPEH) on ERK protein when phosphorylated at Thr202/Tyr204. Briefly, 8000 cells/well in 12 μl media/well are plated in the 384-well plate and left overnight in the incubator (at 37° C. with 5% CO2-humidified atmosphere), the following day the plate is treated in duplicate with test compounds, dabrafenib and PLX8394 (the latter two as controls) at the following final drug concentrations: 10 μM, 3 μM, 1 μM, 0.3 μM, 0.1 μM, 0.03 μM, 0.01 μM, 0.003 μM and 0.001 μM. All wells are subjected to DMSO normalization and drug incubation occurs for 1 hour. Then, 4 μl of a 4× lysis buffer supplied with the kit are added to the wells, the plate is then centrifuged for 30 second (3000 rpm) and incubated on a plate shaker for 1 h at rt.
(§4) At the end of the incubation 4 μl/well of advanced P-ERK antibody solution (prepared according to manufacturer's instruction) followed by 4 μl/well of criptate P-ERK antibody solution (prepared according to manufacturer's instruction) (Cisbio cat #64AERPEH) are added to test wells.
(§5) In order to allow proper data normalization, control wells non drug treated reported in the following table are always included in each plate (according to manufacturer's instruction):
(§6) The plate is then centrifuged at 3000 rpm for 30 seconds, sealed to prevent evaporation and incubated overnight in the dark at room temperature. The plate is then analyzed and fluorescence emission value collected through a Pherastast FSX (BMG Labtech) apparatus at […]. The obtained fluorescence values are processed according to the formula Ratio=[…]*10000 then the average of the ratio on the blank is subtracted to all values.
Data are normalized in the case of HCT116 cells (BRAF activation) considering the average of the ratio (blank subtracted) derived by DMSO only treated cells as 0% and by considering the average of the ratio (blank subtracted) derived by Dabrafenib treated cells at the concentration which provides the highest signal as 100%. Individual points are fitted with either sigmoidal or bell shape curves, the percentage of activation compared to maximum Dabrafenib-mediated activation is determined.

[4] = tested on: A375 cells (V600E mutated BRAF), ERK phospho-T202/Y204; assay: HTRF assay for P-ERK determination in A375 cells (BRAF inhibition); assay type: cell-based; conditions: Homo sapiens, A-375, 1 hour drug incubation, DMSO = 100%, 10 μM Dabrafenib = 0%, top concentration 10 μM, read-out: P-ERK_A375: IC50
Source text: as §1, §2, §3, §4, §5, §6
Data are normalized in the case of A375 cells (BRAF inhibition) considering the average of the ratio (blank subtracted) derived by DMSO only treated cells as 100% and by considering the average of the ratio (blank subtracted) derived by 10 μM Dabrafenib treated cells as 0%. Mean of the normalized points are fitted with sigmoidal curve and IC50 values are determined.

BRAF, sequence (P15056 whole entry): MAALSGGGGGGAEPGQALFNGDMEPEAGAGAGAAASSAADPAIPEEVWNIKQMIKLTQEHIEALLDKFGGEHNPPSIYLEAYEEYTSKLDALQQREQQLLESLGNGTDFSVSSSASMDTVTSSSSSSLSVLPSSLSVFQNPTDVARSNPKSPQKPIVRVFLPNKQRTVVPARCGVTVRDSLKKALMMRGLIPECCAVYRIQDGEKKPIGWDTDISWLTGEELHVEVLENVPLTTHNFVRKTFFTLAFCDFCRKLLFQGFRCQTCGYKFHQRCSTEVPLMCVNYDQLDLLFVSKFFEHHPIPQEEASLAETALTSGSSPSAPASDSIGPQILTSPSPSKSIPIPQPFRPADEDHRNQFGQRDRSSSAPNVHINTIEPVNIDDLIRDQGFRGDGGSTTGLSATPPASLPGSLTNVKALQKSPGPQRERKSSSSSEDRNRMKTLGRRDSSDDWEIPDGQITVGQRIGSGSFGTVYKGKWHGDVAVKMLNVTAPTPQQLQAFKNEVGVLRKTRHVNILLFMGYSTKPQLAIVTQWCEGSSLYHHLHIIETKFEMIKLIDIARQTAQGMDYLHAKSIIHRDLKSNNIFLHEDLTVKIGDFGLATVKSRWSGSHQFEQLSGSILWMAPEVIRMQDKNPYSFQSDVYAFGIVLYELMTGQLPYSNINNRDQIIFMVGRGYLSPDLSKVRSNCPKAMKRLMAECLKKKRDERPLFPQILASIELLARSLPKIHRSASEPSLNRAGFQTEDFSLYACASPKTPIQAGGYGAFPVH
BRAF V660E, sequence (P15056 2-766 V600E): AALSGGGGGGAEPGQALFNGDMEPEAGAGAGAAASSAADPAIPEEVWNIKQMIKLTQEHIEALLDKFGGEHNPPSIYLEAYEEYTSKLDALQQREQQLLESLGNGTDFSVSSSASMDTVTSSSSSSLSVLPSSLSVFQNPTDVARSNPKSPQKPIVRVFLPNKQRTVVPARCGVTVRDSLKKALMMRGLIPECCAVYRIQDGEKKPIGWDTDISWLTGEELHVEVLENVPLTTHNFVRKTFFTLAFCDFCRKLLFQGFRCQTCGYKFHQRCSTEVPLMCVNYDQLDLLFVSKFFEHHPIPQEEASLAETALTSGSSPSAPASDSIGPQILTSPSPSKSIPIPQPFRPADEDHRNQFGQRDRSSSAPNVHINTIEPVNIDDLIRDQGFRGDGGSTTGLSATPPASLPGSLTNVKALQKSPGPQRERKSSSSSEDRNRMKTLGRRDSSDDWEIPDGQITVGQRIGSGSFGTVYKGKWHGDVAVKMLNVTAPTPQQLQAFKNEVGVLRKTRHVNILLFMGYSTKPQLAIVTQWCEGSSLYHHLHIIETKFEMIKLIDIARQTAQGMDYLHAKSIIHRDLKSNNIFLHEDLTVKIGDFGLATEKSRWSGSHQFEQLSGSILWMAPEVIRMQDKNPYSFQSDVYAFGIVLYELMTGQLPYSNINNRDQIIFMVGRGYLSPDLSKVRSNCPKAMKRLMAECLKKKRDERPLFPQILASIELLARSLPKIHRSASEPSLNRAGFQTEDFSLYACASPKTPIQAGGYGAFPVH

Structure (SMILES) | Kd [1] [nM] | Kd [2] [nM] | EC50 [3] [nM] | Fold Selectivity HCT-116 EC50-50/ A375 [3] | IC50 [4] [nM]
CC(=O)N[C@H]1CC[C@H](Nc2ncc3cc(-c4c(F)ccc(NS(=O)(=O)N5CC[C@@H](F)C5)c4F)c(=O)n(C)c3n2)C1 [Example 24, N-[(1S,3S)-3-[[6-[2,6-difluoro-3-[[(3R)-3-fluoropyrrolidin-1-yl]sulfonylamino]phenyl]-8-methyl-7-oxopyrido[2,3-d]pyrimidin-2-yl]amino]cyclopentyl]acetamide] | 27.5 | 8.2 | 8870 | 70.7 | 126
CC(=O)NCCCCCNc1ncc2cc(-c3c(F)ccc(NS(=O)(=O)N4CC[C@@H](F)C4)c3F)c(=O)n(C)c2n1 [Example 25, N-[5-[[6-[2,6-difluoro-3-[[(3R)-3-fluoropyrrolidin-1-yl]sulfonylamino]phenyl]-8-methyl-7-oxopyrido[2,3-d]pyrimidin-2-yl]amino]pentyl]acetamide] | 26.8 | 12.2 | 3180 | 72.3 | 44
CC(=O)N1CCC(O)(CCNc2ncc3cc(-c4c(F)ccc(NS(=O)(=O)N5CC[C@@H](F)C5)c4F)c(=O)n(C)c3n2)CC1 [Example 26, (3R)-N-[3-[2-[2-(1-acetyl-4-hydroxypiperidin-4-yl)ethylamino]-8-methyl-7-oxopyrido[2,3-d]pyrimidin-6-yl]-2,4-difluorophenyl]-3-fluoropyrrolidine-1-sulfonamide] | 27.5 | 9.4 | ≥ 10000 | >36.9 | 271
CC(=O)N(C)CCCNc1ncc2cc(-c3c(F)ccc(NS(=O)(=O)N4CC[C@@H](F)C4)c3F)c(=O)n(C)c2n1 [Example 27, N-[3-[[6-[2,6-difluoro-3-[[(3R)-3-fluoropyrrolidin-1-yl]sulfonylamino]phenyl]-8-methyl-7-oxopyrido[2,3-d]pyrimidin-2-yl]amino]propyl]-N-methylacetamide] | 41.9 | 9.6 | 1830 | 33.4 | 54.8
CC(=O)N1CCC(CCCNc2ncc3cc(-c4c(F)ccc(NS(=O)(=O)N5CC[C@@H](F)C5)c4F)c(=O)n(C)c3n2)CC1 [Example 28, (3R)-N-[3-[2-[3-(1-acetylpiperidin-4-yl)propylamino]-8-methyl-7-oxopyrido[2,3-d]pyrimidin-6-yl]-2,4-difluorophenyl]-3-fluoropyrrolidine-1-sulfonamide] | 53 | 14.7 | 1370 | 40.9 | 33.4
CC(=O)NCCOCCNc1ncc2cc(-c3c(F)ccc(NS(=O)(=O)N4CC[C@@H](F)C4)c3F)c(=O)n(C)c2n1 [Example 29, N-[2-[2-[[6-[2,6-difluoro-3-[[(3R)-3-fluoropyrrolidin-1-yl]sulfonylamino]phenyl]-8-methyl-7-oxopyrido[2,3-d]pyrimidin-2-yl]amino]ethoxy]ethyl]acetamide] | 60.1 | 20.1 | ≥ 10000 | >26.7 | 375
CCN(C)S(=O)(=O)Nc1ccc(F)c(-c2cc3cnc(NCCCN(C)C(C)=O)nc3n(C)c2=O)c1F [Example 30, N-[3-[[6-[3-[[ethyl(methyl)sulfamoyl]amino]-2,6-difluorophenyl]-8-methyl-7-oxopyrido[2,3-d]pyrimidin-2-yl]amino]propyl]-N-methylacetamide] | 159 | 72.3 | 5700 | 19.8 | 287
CC(=O)N1CCN(CCNc2ncc3cc(-c4c(F)ccc(NS(=O)(=O)N5CC[C@@H](F)C5)c4F)c(=O)n(C)c3n2)CC1 [Example 31, (3R)-N-[3-[2-[2-(4-acetylpiperazin-1-yl)ethylamino]-8-methyl-7-oxopyrido[2,3-d]pyrimidin-6-yl]-2,4-difluorophenyl]-3-fluoropyrrolidine-1-sulfonamide] | 52.2 | 21 | 6400 | 80.2 | 79.8
CC(=O)NCCOCCOCCNc1ncc2cc(-c3c(F)ccc(NS(=O)(=O)N4CC[C@@H](F)C4)c3F)c(=O)n(C)c2n1 [Example 32, N-[2-[2-[2-[[6-[2,6-difluoro-3-[[(3R)-3-fluoropyrrolidin-1-yl]sulfonylamino]phenyl]-8-methyl-7-oxopyrido[2,3-d]pyrimidin-2-yl]amino]ethoxy]ethoxy]ethyl]acetamide] | 70 | 23.6 | ≥ 10000 | >51.1 | 196
CC(=O)N1CCC(NC(=O)CCCNc2ncc3cc(-c4c(F)ccc(NS(=O)(=O)N5CC[C@@H](F)C5)c4F)c(=O)n(C)c3n2)CC1 [Example 33, N-(1-acetylpiperidin-4-yl)-4-[[6-[2,6-difluoro-3-[[(3R)-3-fluoropyrrolidin-1-yl]sulfonylamino]phenyl]-8-methyl-7-oxopyrido[2,3-d]pyrimidin-2-yl]amino]butanamide] | 60.1 | 24.9 | ≥ 10000 | >3.2 | 3170
CC(=O)NCc1cccc(CCNc2ncc3cc(-c4c(F)ccc(NS(=O)(=O)N5CC[C@@H](F)C5)c4F)c(=O)n(C)c3n2)c1 [Example 34, N-[[3-[2-[[6-[2,6-difluoro-3-[[(3R)-3-fluoropyrrolidin-1-yl]sulfonylamino]phenyl]-8-methyl-7-oxopyrido[2,3-d]pyrimidin-2-yl]amino]ethyl]phenyl]methyl]acetamide] | 4 | 1.8 | 681 | 59.1 | 11.5
CC(=O)NCc1ccc(CCNc2ncc3cc(-c4c(F)ccc(NS(=O)(=O)N5CC[C@@H](F)C5)c4F)c(=O)n(C)c3n2)cc1 [Example 35, N-[[4-[2-[[6-[2,6-difluoro-3-[[(3R)-3-fluoropyrrolidin-1-yl]sulfonylamino]phenyl]-8-methyl-7-oxopyrido[2,3-d]pyrimidin-2-yl]amino]ethyl]phenyl]methyl]acetamide] | 22.1 | 5.7 | 1490 | 40.0 | 37.3
CC(=O)N(C)Cc1cccc(CCNc2ncc3cc(-c4c(F)ccc(NS(=O)(=O)N5CC[C@@H](F)C5)c4F)c(=O)n(C)c3n2)c1 [Example 36, N-[[3-[2-[[6-[2,6-difluoro-3-[[(3R)-3-fluoropyrrolidin-1-yl]sulfonylamino]phenyl]-8-methyl-7-oxopyrido[2,3-d]pyrimidin-2-yl]amino]ethyl]phenyl]methyl]-N-methylacetamide] | 17.2 | 8.9 | 2730 | 133.4 | 20.5
